This assay deals with Ross 708 male broilers. The assay can be described thus: In vivo efficacy study in chickens: methionine source in methionine-deficient diet. To be noted: young broilers, 0 to 14 days of age, 0.15% added methionine, diet deficient in methionine (0.26%). On the procedure: HMTBA homopolymer was compared to HMTBA calcium salt (MHA) in young broilers chicks as methionine source with a diet deficient in dietary methionine (0.26%) as negative control. A total of 108 Ross 708 male broilers were randomly assigned to 18 battery pens with 6 birds per pen. Six replicate pens were fed one of the 3 test diets from 0 to 14 days of age. HMTBA and MHA were added at equal molar basis to provide 0.15% added methionine. Growth performance parameters including body weight, feed conversion ratio (FCR), feed intake, and mortality, were measured and the body weight and FCR results are shown in FIG. 4.

For the compound `CSCCC(O)C(=O)[O-].CSCCC(O)C(=O)[O-].[Ca+2]` (stereo not shown) [MHA, HMTBA calcium salt], the body weight entry is “significantly increased”, the “feed conversion ratio (FCR)” value is listed as “significantly improved”, the performance index result is on record as “significantly increased” and the weight gain entry is recorded as “significantly increased”.
